# Where a name gives a salt, the structure may show the parent alone.
# How the values were obtained:
# Type in all cases: physicochemical
# [1] = Storage stability, accelerated conditions 40° C./75% relative humidity; conditions: for HPLC assay (anhydrous) / HPLC purity: 12-HM06 / HPLC purity: impurity 12-HM06.il (RRT 0.92-.94) / HPLC purity: impurity RRT 0.56 / HPLC purity: impurity RRT 1.11 / HPLC purity: impurity RRT 1.20-1.24 / HPLC purity: impurity RRT 1.41-1.42 / Water content (KF) / XRPD: 40° C./75% relative humidity
# Procedure: (§1) Samples of HM06 1:2 HCl Form 1 were subjected to accelerated storage conditions and long-term storage.
# Samples of HM06 1:2 HCl Form 1 from the same lot were stored at 40° C. and 75% relative humidity for 24 months with testing at regular intervals.
# [2] = Saturated solution in methanol; conditions: room temperature
# Procedure: A saturated solution of HM06 1:2 HCl Form 1 in methanol approx. 50 mg/mL was prepared and allowed to stir at room temperature overnight (18 hours). After this time, it was filtered and left to evaporate at 25° C./700 mbar. The preparation of the sample plate sealed with Kapton film was performed under 40-45% RH. Some very minor signals of Form 1 were present.
# [3] = Storage stability, long term conditions 25° C. and 60% relative humidity
# Text: as §1
# Table 25 sets forth the sample analysis at times 0, 3 months, 6 months, 9 months, 12 months, 18 months, and 24 months.
# [4] = Uptake of water from air by dehydrated form, followed by VP-XRPD; conditions: after vacuum 0.07 mbar; ambient condition, RH about 80%
# Procedure: VP-XRPD measurements were performed on the Panalytical X'pert equipped with the Anton Paar TTK450 chamber which allowed for measurement of the powder in-situ at controlled temperature and/or under vacuum.
# The first measurement was collected at RT and atmospheric pressure. The sample was then left for 15 minutes under vacuum (0.07 mbar).
# The uptake of water by Form 1-bis was observed via XRPD by following the difference in the pattern in the range 2θ=25.5°-27-5° (see FIG. 5C). Under vacuum the highest peak is the peak at 2θ=26.7° while after exposure of the sample in air 2 minutes the highest is at 2θ=26.4°. The peak at 2θ=26.4° moves to 2θ=26.2° in 20 minutes. HM06 1:2 HCl crystalline Form 1-bis uptakes the water from the atmosphere as soon as the powder is exposed to the air, and it reaches the diffraction pattern of the starting material in 20 minutes (see […] 5D). This experiment was done in ambient condition with RH % of the room about at 80%.
# [5] = Solid form (polymorph) stability on storage, followed by XRPD; conditions: for Form stability (XRPD) after storage in a sealed vial: seven days in a sealed vial
# Procedure: The stability of Form 4-bis was assessed after seven days of storage in a sealed vial.
# HM06 1:2 HCl Form 4 exposed powder was stored overnight at room temperature under 43% RH.
# The stability of the HM06 1:2 HCl Form 5-bis sample was assessed after 18 hours exposed to air and after one week in a sealed vial, both at room temperature.
# Form 5-bis was measured after 18 hours exposed powder at room temperature. The % RH was approx. of 45%.
# These changes could not be associated with conversion into one of the other isolated polymorphs observed during this study: thus, the sample was considered not stable.
# HM06 1:2 HCl Form 5-bis was measured after seven days at room temperature in a sealed vial.
# Form 6 was collected after evaporation of HM06 1:2 HCl Form 1 in a 1:1 acetonitrile/water solution at room temperature under low pressure.
smiles,measurement,setting,value
"COCc1ccc(NC(=O)c2c(C#CCN3CCOCC3)n(C3(C)CC3)c3ncnc(N)c23)cc1 [HM06 1:2 HCl Form 1, 4-amino-N-[4-(methoxymethyl)phenyl]-7-(1-methylcyclopropyl)-6-(3-morpholinoprop-1-yn-1-yl)-7H-pyrrolo[2,3-d]pyrimidine-5-carboxamide]",HPLC assay (anhydrous),[1]; 0 months,99%
same,HPLC purity: 12-HM06,[1]; 0 months,99%
same,HPLC purity: impurity 12-HM06.il (RRT 0.92-.94),[1]; 0 months,0.51%
same,HPLC purity: impurity RRT 0.56,[1]; 0 months,not detected
same,HPLC purity: impurity RRT 1.11,[1]; 0 months,not detected
same,HPLC purity: impurity RRT 1.20-1.24,[1]; 0 months,0.20%
same,HPLC purity: impurity RRT 1.41-1.42,[1]; 0 months,0.06%
same,Water content (KF),[1]; 0 months,6%
same,XRPD,[1]; 0 months,Crystalline
same,HPLC assay (anhydrous),[1]; 1 month,100%
same,HPLC purity: 12-HM06,[1]; 1 month,99%
same,HPLC purity: impurity 12-HM06.il (RRT 0.92-.94),[1]; 1 month,0.51%
same,HPLC purity: impurity RRT 0.56,[1]; 1 month,not detected
same,HPLC purity: impurity RRT 1.11,[1]; 1 month,not detected
same,HPLC purity: impurity RRT 1.20-1.24,[1]; 1 month,0.20%
same,HPLC purity: impurity RRT 1.41-1.42,[1]; 1 month,0.06%
same,Water content (KF),[1]; 1 month,6%
same,XRPD,[1]; 1 month,Crystalline
same,HPLC assay (anhydrous),[1]; 3 months,102%
same,HPLC purity: 12-HM06,[1]; 3 months,99%
same,HPLC purity: impurity 12-HM06.il (RRT 0.92-.94),[1]; 3 months,0.51%
same,HPLC purity: impurity RRT 0.56,[1]; 3 months,not detected
same,HPLC purity: impurity RRT 1.11,[1]; 3 months,not detected
same,HPLC purity: impurity RRT 1.20-1.24,[1]; 3 months,0.20%
same,HPLC purity: impurity RRT 1.41-1.42,[1]; 3 months,0.06%
same,Water content (KF),[1]; 3 months,5%
same,XRPD,[1]; 3 months,Crystalline
same,HPLC assay (anhydrous),[1]; 6 months,98%
same,HPLC purity: 12-HM06,[1]; 6 months,99%
same,HPLC purity: impurity 12-HM06.il (RRT 0.92-.94),[1]; 6 months,0.51%
same,HPLC purity: impurity RRT 0.56,[1]; 6 months,0.05%
same,HPLC purity: impurity RRT 1.11,[1]; 6 months,0.05%
same,HPLC purity: impurity RRT 1.20-1.24,[1]; 6 months,0.19%
same,HPLC purity: impurity RRT 1.41-1.42,[1]; 6 months,0.06%
same,Water content (KF),[1]; 6 months,5%
same,XRPD,[1]; 6 months,Crystalline
same,"Storage stability, overall result",[1]; accelerated storage conditions and long-term storage,remained stable and crystalline
same,Concentration of saturated solution in methanol,[2],approx. 50 mg/mL
same,HPLC assay (anhydrous),[3]; 0 months,99%
same,HPLC purity: 12-HM06,[3]; 0 months,99%
same,HPLC purity: impurity 12-HM06.il (RRT 0.92-0.94),[3]; 0 months,0.51%
same,HPLC purity: impurity RRT 1.20-1.24,[3]; 0 months,0.20%
same,HPLC purity: impurity RRT 1.41-1.42,[3]; 0 months,0.06%
same,Water content (KF),[3]; 0 months,6%
same,XRPD,[3]; 0 months,Crystalline
same,HPLC assay (anhydrous),[3]; 3 months,102%
same,HPLC purity: 12-HM06,[3]; 3 months,99%
same,HPLC purity: impurity 12-HM06.il (RRT 0.92-0.94),[3]; 3 months,0.51%
same,HPLC purity: impurity RRT 1.20-1.24,[3]; 3 months,0.20%
same,HPLC purity: impurity RRT 1.41-1.42,[3]; 3 months,0.06%
same,Water content (KF),[3]; 3 months,5%
same,XRPD,[3]; 3 months,Crystalline
same,HPLC assay (anhydrous),[3]; 6 months,99%
same,HPLC purity: 12-HM06,[3]; 6 months,99%
same,HPLC purity: impurity 12-HM06.il (RRT 0.92-0.94),[3]; 6 months,0.51%
same,HPLC purity: impurity RRT 1.20-1.24,[3]; 6 months,0.20%
same,HPLC purity: impurity RRT 1.41-1.42,[3]; 6 months,0.06%
same,Water content (KF),[3]; 6 months,5%
same,XRPD,[3]; 6 months,Crystalline
same,HPLC assay (anhydrous),[3]; 9 months,99%
same,HPLC purity: 12-HM06,[3]; 9 months,99%
same,HPLC purity: impurity 12-HM06.il (RRT 0.92-0.94),[3]; 9 months,0.51%
same,HPLC purity: impurity RRT 1.20-1.24,[3]; 9 months,0.20%
same,HPLC purity: impurity RRT 1.41-1.42,[3]; 9 months,0.06%
same,Water content (KF),[3]; 9 months,5%
same,XRPD,[3]; 9 months,Crystalline
same,HPLC assay (anhydrous),[3]; 12 months,99%
same,HPLC purity: 12-HM06,[3]; 12 months,99%
same,HPLC purity: impurity 12-HM06.il (RRT 0.92-0.94),[3]; 12 months,0.51%
same,HPLC purity: impurity RRT 1.20-1.24,[3]; 12 months,0.20%
same,HPLC purity: impurity RRT 1.41-1.42,[3]; 12 months,0.06%
same,Water content (KF),[3]; 12 months,6%
same,XRPD,[3]; 12 months,Crystalline
same,HPLC assay (anhydrous),[3]; 18 months,97%
same,HPLC purity: 12-HM06,[3]; 18 months,99%
same,HPLC purity: impurity 12-HM06.il (RRT 0.92-0.94),[3]; 18 months,0.51%
same,HPLC purity: impurity RRT 0.85,[3]; 18 months,0.05%
same,HPLC purity: impurity RRT 1.11,[3]; 18 months,0.05%
same,HPLC purity: impurity RRT 1.20-1.24,[3]; 18 months,0.19%
same,HPLC purity: impurity RRT 1.41-1.42,[3]; 18 months,0.06%
same,Water content (KF),[3]; 18 months,5%
same,XRPD,[3]; 18 months,Crystalline
same,HPLC assay (anhydrous),[3]; 24 months,100%
same,HPLC purity: 12-HM06,[3]; 24 months,99%
same,HPLC purity: impurity 12-HM06.il (RRT 0.92-0.94),[3]; 24 months,0.51%
same,HPLC purity: impurity RRT 0.85,[3]; 24 months,0.06%
same,HPLC purity: impurity RRT 1.20-1.24,[3]; 24 months,0.19%
same,HPLC purity: impurity RRT 1.41-1.42,[3]; 24 months,0.06%
same,Water content (KF),[3]; 24 months,6%
same,XRPD,[3]; 24 months,Crystalline
"COCc1ccc(NC(=O)c2c(C#CCN3CCOCC3)n(C3(C)CC3)c3ncnc(N)c23)cc1 [HM06 1:2 HCl Form 1-bis, 4-amino-N-[4-(methoxymethyl)phenyl]-7-(1-methylcyclopropyl)-6-(3-morpholinoprop-1-yn-1-yl)-7H-pyrrolo[2,3-d]pyrimidine-5-carboxamide]",Time in air to reach the diffraction pattern of the starting material (Form 1) by uptake of water,[4],20 min
"COCc1ccc(NC(=O)c2c(C#CCN3CCOCC3)n(C3(C)CC3)c3ncnc(N)c23)cc1 [HM06 1:2 HCl Form 4, 4-amino-N-[4-(methoxymethyl)phenyl]-7-(1-methylcyclopropyl)-6-(3-morpholinoprop-1-yn-1-yl)-7H-pyrrolo[2,3-d]pyrimidine-5-carboxamide]",Form stability (XRPD) of exposed powder,[5]; stored overnight at room temperature under 43% RH,No significant modifications
"COCc1ccc(NC(=O)c2c(C#CCN3CCOCC3)n(C3(C)CC3)c3ncnc(N)c23)cc1 [HM06 1:2 HCl Form 4-bis, 4-amino-N-[4-(methoxymethyl)phenyl]-7-(1-methylcyclopropyl)-6-(3-morpholinoprop-1-yn-1-yl)-7H-pyrrolo[2,3-d]pyrimidine-5-carboxamide]",Form stability (XRPD) after storage in a sealed vial,[5]; listed as Form 4-bis,complete conversion into Form 1
"COCc1ccc(NC(=O)c2c(C#CCN3CCOCC3)n(C3(C)CC3)c3ncnc(N)c23)cc1 [HM06 1:2 HCl Form 5-bis, 4-amino-N-[4-(methoxymethyl)phenyl]-7-(1-methylcyclopropyl)-6-(3-morpholinoprop-1-yn-1-yl)-7H-pyrrolo[2,3-d]pyrimidine-5-carboxamide]",Form stability (XRPD) of exposed powder,"[5]; 18 hours exposed to air at room temperature, approx. 45% RH",not stable
same,Form stability (XRPD) after storage in a sealed vial,[5],started to convert into Form 1
"COCc1ccc(NC(=O)c2c(C#CCN3CCOCC3)n(C3(C)CC3)c3ncnc(N)c23)cc1 [HM06 1:2 HCl Form 6, 4-amino-N-[4-(methoxymethyl)phenyl]-7-(1-methylcyclopropyl)-6-(3-morpholinoprop-1-yn-1-yl)-7H-pyrrolo[2,3-d]pyrimidine-5-carboxamide]",Form stability on storage,"[5]; 6 days of storage, room temperature under low pressure",conversion into Form 1

# Reference: patent publication US20240010653A1, “Crystalline Forms of 4-amino-N-[4-(methoxymethyl)phenyl]-7-(1-methylcyclopropyl)-6-(3-morpholinoprop-1-yn-1-yl)-7H-pyrrolo[2,3-d]pyrimidine-5-carboxamide” (Helsinn Healthcare SA, priority 2020, published 2024)
